Measured values taken from PubChem BioAssay AID1259407 (Chemical Carcinogenesis Research Information System (CCRIS), 2018).
The source made the active and inactive calls. No rule for the calls is given here.

Test system: CCRIS mutagenicity, Ames/micronucleus/aberration tests
Assay: CCRIS mutagenicity studies

Measured: mutagenic call

Cn1c(N)nc2ncc(-c3ccccc3)cc21
inactive: Test System: AMES SALMONELLA TYPHIMURIUM, Strain/Indicator: TA98, Metabolic Activation: MOUSE, KIDNEY, S-9, PHENETHYL ISOTHIOCYANATE, Method: STANDARD PLATE inactive; negative | Test System: AMES SALMONELLA TYPHIMURIUM, Strain/Indicator: TA98, Metabolic Activation: MOUSE, KIDNEY, S-9, Method: STANDARD PLATE inactive; negative | Test System: AMES SALMONELLA TYPHIMURIUM, Strain/Indicator: TA98, Metabolic Activation: MOUSE, LUNG, S-9, PHENETHYL ISOTHIOCYANATE, Method: STANDARD PLATE inactive; negative | Test System: AMES SALMONELLA TYPHIMURIUM, Strain/Indicator: TA98, Metabolic Activation: MOUSE, LUNG, S-9, Method: STANDARD PLATE inactive; negative | Test System: AMES SALMONELLA TYPHIMURIUM, Strain/Indicator: TA98, Metabolic Activation: RAT, COLON, S-9, 3-METHYLCHOLANTHRENE, Method: STANDARD PLATE inactive; negative | Test System: AMES SALMONELLA TYPHIMURIUM, Strain/Indicator: TA100, Metabolic Activation: RAT, LIVER, S-9, AROCLOR 1254, Method: PREINCUBATION inactive; negative | Test System: AMES SALMONELLA TYPHIMURIUM, Strain/Indicator: TA1978, Metabolic Activation: S-9 (2 MG/ML, 0.1 ML), Method: MICROSUSPENSION inactive; negative | Test System: AMES SALMONELLA TYPHIMURIUM, Strain/Indicator: YG1024, Metabolic Activation: RAT, COLON, S-9, 3-METHYLCHOLANTHRENE, Method: STANDARD PLATE inactive; negative
active: End Point: IN VITRO MICRONUCLEUS, Test System: CHL/IU CELLS, Metabolic Activation: RAT, LIVER, S-9, PHENOBARBITAL AND 5,6-BENZOFLAVONE active; positive | End Point: IN VIVO MICRONUCLEUS, Test System: BONE MARROW POLYCHROMATIC ERYTHROCYTES, Species: MOUSE, Strain/Sex: BALB/C/MALE, Route: IP INJECTION active; positive | End Point: IN VIVO MICRONUCLEUS, Test System: SPLENOCYTES, Species: MOUSE, Strain/Sex: BALB/C, Route: IO active; positive only for 48.8 mg dose at either 2 or 16 days after treatment | Test System: AMES SALMONELLA TYPHIMURIUM, Strain/Indicator: TA98(1,8-DNP6), Metabolic Activation: RAT, LIVER, S-9, AROCLOR, Method: PREINCUBATION active; positive | Test System: AMES SALMONELLA TYPHIMURIUM, Strain/Indicator: TA98(1,8-DNP6), Metabolic Activation: RAT, LIVER, S-9, Method: STANDARD PLATE active; positive | Test System: AMES SALMONELLA TYPHIMURIUM, Strain/Indicator: TA98, Metabolic Activation: HUMAN, LIVER, MICROSOMES, Method: PREINCUBATION active; positive | Test System: AMES SALMONELLA TYPHIMURIUM, Strain/Indicator: TA98, Metabolic Activation: MONKEY, LIVER, MICROSOMES, Method: PREINCUBATION active; positive | Test System: AMES SALMONELLA TYPHIMURIUM, Strain/Indicator: TA98, Metabolic Activation: MOUSE, LIVER, S-9, PHENETHYL ISOTHIOCYANATE, Method: STANDARD PLATE active; positive | Test System: AMES SALMONELLA TYPHIMURIUM, Strain/Indicator: TA98, Metabolic Activation: MOUSE, LIVER, S-9, Method: STANDARD PLATE active; positive | Test System: AMES SALMONELLA TYPHIMURIUM, Strain/Indicator: TA98, Metabolic Activation: RAT, LIVER, HEPATOCYTES, AROCLOR 1254, Method: PREINCUBATION active; positive | Test System: AMES SALMONELLA TYPHIMURIUM, Strain/Indicator: TA98, Metabolic Activation: RAT, LIVER, HEPATOCYTES, Method: PREINCUBATION active; positive | Test System: AMES SALMONELLA TYPHIMURIUM, Strain/Indicator: TA98, Metabolic Activation: RAT, LIVER, MICROSOMES, Method: PREINCUBATION active; positive | Test System: AMES SALMONELLA TYPHIMURIUM, Strain/Indicator: TA98, Metabolic Activation: RAT, LIVER, S-9, AROCLOR 1254, Method: PREINCUBATION active; positive | Test System: AMES SALMONELLA TYPHIMURIUM, Strain/Indicator: TA98, Metabolic Activation: RAT, LIVER, S-9, AROCLOR, Method: PREINCUBATION active; positive | Test System: AMES SALMONELLA TYPHIMURIUM, Strain/Indicator: TA98, Metabolic Activation: RAT, LIVER, S-9, Method: STANDARD PLATE active; positive | Test System: AMES SALMONELLA TYPHIMURIUM, Strain/Indicator: TA98, Metabolic Activation: S-9, Method: MICROSUSPENSION active; positive | Test System: AMES SALMONELLA TYPHIMURIUM, Strain/Indicator: TA1978, Metabolic Activation: S-9 (0.5 ML), Method: MICROSUSPENSION active; positive | Test System: AMES SALMONELLA TYPHIMURIUM, Strain/Indicator: TA1978, Metabolic Activation: S-9 (2 MG/ML, 0.25 ML), Method: MICROSUSPENSION active; positive | Test System: AMES SALMONELLA TYPHIMURIUM, Strain/Indicator: YG1019, Metabolic Activation: RAT LIVER S-9, AROCLOR, Method: PREINCUBATION active; positive | Test System: AMES SALMONELLA TYPHIMURIUM, Strain/Indicator: YG1024, Metabolic Activation: RAT, LIVER, S-9, AROCLOR, Method: PREINCUBATION active; positive | Test System: CHINESE HAMSTER V-79, Strain/Indicator: V-79/6-THIOGUANINE, Metabolic Activation: HAMSTER, PANCREAS DUCT, EPITHELIAL CELLS active; positive | Test System: CHINESE HAMSTER V-79, Strain/Indicator: V-79/6-THIOGUANINE, Metabolic Activation: HUMAN, PANCREAS DUCT, EPITHELIAL CELLS active; positive | Test System: CHINESE HAMSTER V-79, Strain/Indicator: XEMH1A2-MZ (HPRT)/6-THIOGUANINE, Metabolic Activation: NONE active; positive | Test System: HUMAN COLON CANCER CELLS, Strain/Indicator: DLD-1 (HPRT)/6-THIOGUANINE, Metabolic Activation: MOUSE LIVER S-9, PHENOBARBITAL AND 5,6-BENZOFLAVONE, Method: SUSPENSION/PLATE active; positive | Test System: HUMAN COLON CANCER CELLS, Strain/Indicator: HCT116 (HPRT)/6-THIOGUANINE, Metabolic Activation: MOUSE LIVER S-9, PHENOBARBITAL AND 5,6-BENZOFLAVONE, Method: SUSPENSION/PLATE active; positive | Test System: UDS HUMAN HEPATOCYTES, Strain/Indicator: THY INCORP, Metabolic Activation: NONE, Method: AUTORADIOGRAPHY active; positive | Test System: UDS MOUSE HEPATOCYTES, Strain/Indicator: THY INCORP, Metabolic Activation: NONE, Method: AUTORADIOGRAPHY active; positive
